Laboratory results published in publication PMC5218480 (PLoS ONE, 2017).

Tested on: MV-4-11 cells
Test: Gene expression microarray analysis (Affymetrix PrimeView) and GSEA
Type: cell-based, human
Set-up: RFU PODN (11730768_x_at) / Fold change /veh PODN (11730768_x_at) / RFU LINC00158 (11744669_a_at) / Fold change /veh LINC00158 (11744669_a_at) / RFU DUSP10 (11751237_a_at) / Fold change /veh DUSP10 (11751237_a_at) / RFU ID3 (11757404_x_at) / Fold change /veh ID3 (11757404_x_at) / RFU PLEKHG5 (11737974_s_at) / Fold change /veh PLEKHG5 (11737974_s_at) / RFU LRRC4B (11730491_at) / Fold change /veh LRRC4B (11730491_at) / RFU GIMAP4 (11747438_a_at) / Fold change /veh GIMAP4 (11747438_a_at) / RFU KRT8 (11758183_x_at) / Fold change /veh KRT8 (11758183_x_at) / RFU CNN1 (11734310_a_at) / Fold change /veh CNN1 (11734310_a_at) / RFU VPS37D (11726825_at) / Fold change /veh VPS37D (11726825_at) / RFU C10orf10 (11716522_x_at) / Fold change /veh C10orf10 (11716522_x_at) / RFU KIR2DL2 /// KIR2DL4 /// KIR2DL5A /// KIR2DL5B /// KIR2DS1 /// KIR2DS2 /// KIR2DS3 /// KIR2DS4 /// KIR3DL3 /// KIR3DL3 /// KIR3DS1 (11738374_at) / Fold change /veh KIR2DL2 /// KIR2DL4 /// KIR2DL5A /// KIR2DL5B /// KIR2DS1 /// KIR2DS2 /// KIR2DS3 /// KIR2DS4 /// KIR3DL3 /// KIR3DL3 /// KIR3DS1 (11738374_at) / RFU C1QL1 (11718748_at) / Fold change /veh C1QL1 (11718748_at) / RFU TMPRSS4 (11747572_a_at) / Fold change /veh TMPRSS4 (11747572_a_at) / RFU HAMP (11756126_x_at) / Fold change /veh HAMP (11756126_x_at) / RFU RNFT2 (11725882_a_at) / Fold change /veh RNFT2 (11725882_a_at) / RFU NR4A2 (11747474_a_at) / Fold change /veh NR4A2 (11747474_a_at) / RFU ABCC12 (11746883_a_at) / Fold change /veh ABCC12 (11746883_a_at) / RFU TMEM136 (11760407_x_at) / Fold change /veh TMEM136 (11760407_x_at) / RFU CLDN22 /// WWC2 (11732394_at) / Fold change /veh CLDN22 /// WWC2 (11732394_at) / RFU HLA-DPB1 (11760878_x_at) / Fold change /veh HLA-DPB1 (11760878_x_at) / RFU SPINT1 (11716480_a_at) / Fold change /veh SPINT1 (11716480_a_at) / RFU GAP43 (11754022_s_at) / Fold change /veh GAP43 (11754022_s_at) / RFU A4GNT (11735810_at) / Fold change /veh A4GNT (11735810_at) / RFU PRB3 (11715151_x_at) / Fold change /veh PRB3 (11715151_x_at) / RFU TUBB4B (11761932_at) / Fold change /veh TUBB4B (11761932_at) / RFU CAPN14 (11732068_a_at) / Fold change /veh CAPN14 (11732068_a_at) / RFU TMCC2 (11721928_a_at) / Fold change /veh TMCC2 (11721928_a_at) / RFU IRGQ (11745062_a_at) / Fold change /veh IRGQ (11745062_a_at) / RFU FAM174B (11720279_a_at) / Fold change /veh FAM174B (11720279_a_at) / RFU TMPRSS4 (11748680_a_at) / Fold change /veh TMPRSS4 (11748680_a_at) / RFU FAM212B (11763350_a_at) / Fold change /veh FAM212B (11763350_a_at) / RFU PLEKHG5 (11743358_a_at) / Fold change /veh PLEKHG5 (11743358_a_at) / RFU ZSCAN30 (11745921_a_at) / Fold change /veh ZSCAN30 (11745921_a_at) / RFU CMKLR1 (11741424_a_at) / Fold change /veh CMKLR1 (11741424_a_at) / RFU LOC101060620 /// MAPK8IP1 (11723275_at) / Fold change /veh LOC101060620 /// MAPK8IP1 (11723275_at) / RFU SPTSSB (11747773_x_at) / Fold change /veh SPTSSB (11747773_x_at) / RFU PRSS12 (11739890_at) / Fold change /veh PRSS12 (11739890_at) / RFU BIN1 (11741810_x_at) / Fold change /veh BIN1 (11741810_x_at) / RFU WNT11 (11732464_a_at) / Fold change /veh WNT11 (11732464_a_at) / RFU C10orf10 (11716521_a_at) / Fold change /veh C10orf10 (11716521_a_at) / RFU C5orf56 (11738089_at) / Fold change /veh C5orf56 (11738089_at) / RFU CYB561 (11721691_x_at) / Fold change /veh CYB561 (11721691_x_at) / RFU ANKRD19P (11752326_a_at) / Fold change /veh ANKRD19P (11752326_a_at) / RFU OR2T12 /// OR2T33 /// OR2T8 (11738714_s_at) / Fold change /veh OR2T12 /// OR2T33 /// OR2T8 (11738714_s_at) / RFU VCAN (11748164_a_at) / Fold change /veh VCAN (11748164_a_at) / RFU JSRP1 (11732532_at) / Fold change /veh JSRP1 (11732532_at) / RFU KRTAP10-11 (11738290_x_at) / Fold change /veh KRTAP10-11 (11738290_x_at) / RFU MYO3A (11730013_a_at) / Fold change /veh MYO3A (11730013_a_at) / RFU EBF3 (11725865_a_at) / Fold change /veh EBF3 (11725865_a_at) / RFU CAMK2N1 (11719241_x_at) / Fold change /veh CAMK2N1 (11719241_x_at) / RFU C5orf56 (11738088_a_at) / Fold change /veh C5orf56 (11738088_a_at) / RFU OLFML3 (11715873_a_at) / Fold change /veh OLFML3 (11715873_a_at) / RFU LOC100653217 /// NTM (11731650_a_at) / Fold change /veh LOC100653217 /// NTM (11731650_a_at) / RFU MAPK11 (11762145_a_at) / Fold change /veh MAPK11 (11762145_a_at) / RFU FIZ1 (11724087_x_at) / Fold change /veh FIZ1 (11724087_x_at) / RFU OASL (11726364_x_at) / Fold change /veh OASL (11726364_x_at) / RFU SOX15 (11748057_x_at) / Fold change /veh SOX15 (11748057_x_at) / RFU CD79A (11719716_a_at) / Fold change /veh CD79A (11719716_a_at) / RFU HIST1H1D (11736915_at) / Fold change /veh HIST1H1D (11736915_at) / RFU CASKIN2 (11723855_a_at) / Fold change /veh CASKIN2 (11723855_a_at) / RFU LOC730098 (11760151_x_at) / Fold change /veh LOC730098 (11760151_x_at) / RFU OR4N2 (11742367_at) / Fold change /veh OR4N2 (11742367_at) / RFU PRRT2 (11749266_a_at) / Fold change /veh PRRT2 (11749266_a_at) / RFU SNX32 (11753110_a_at) / Fold change /veh SNX32 (11753110_a_at) / RFU CDHR5 (11726645_a_at) / Fold change /veh CDHR5 (11726645_a_at) / RFU RCAN1 (11760418_a_at) / Fold change /veh RCAN1 (11760418_a_at) / RFU FAM167A (11723789_a_at) / Fold change /veh FAM167A (11723789_a_at) / RFU FAM26E (11764081_at) / Fold change /veh FAM26E (11764081_at) / RFU ISYNA1 (11749810_s_at) / Fold change /veh ISYNA1 (11749810_s_at) / RFU ACY1 (11761880_at) / Fold change /veh ACY1 (11761880_at) / RFU 11764098_at / Fold change /veh 11764098_at / RFU SAMD14 (11745864_x_at) / Fold change /veh SAMD14 (11745864_x_at) / RFU NPB (11741838_a_at) / Fold change /veh NPB (11741838_a_at) / RFU TMPRSS6 (11731388_a_at) / Fold change /veh TMPRSS6 (11731388_a_at) / RFU KRTAP10-2 (11738614_at) / Fold change /veh KRTAP10-2 (11738614_at) / RFU ARHGAP8 /// PRR5-ARHGAP8 (11727945_x_at) / Fold change /veh ARHGAP8 /// PRR5-ARHGAP8 (11727945_x_at) / RFU KRTAP5-7 /// NADSYN1 (11734609_at) / Fold change /veh KRTAP5-7 /// NADSYN1 (11734609_at) / RFU RASL12 (11751679_a_at) / Fold change /veh RASL12 (11751679_a_at) / RFU CDKN2B (11736163_a_at) / Fold change /veh CDKN2B (11736163_a_at) / RFU PRF1 (11729649_at) / Fold change /veh PRF1 (11729649_at) / RFU, ZNF638 /// ZNF638-IT1 / Fold change vs veh, ZNF638 /// ZNF638-IT1 / RFU, PANK3 / Fold change vs veh, PANK3 / RFU, SH3YL1 / Fold change vs veh, SH3YL1 / RFU, ZEB2 / Fold change vs veh, ZEB2 / RFU, NRIP1 / Fold change vs veh, NRIP1 / RFU, PTTG1IP / Fold change vs veh, PTTG1IP / RFU, CAPN2 / Fold change vs veh, CAPN2 / RFU, MED14 / Fold change vs veh, MED14 / RFU, SNORA58 / Fold change vs veh, SNORA58 / RFU, C1orf63 / Fold change vs veh, C1orf63 / RFU, LRRFIP1 / Fold change vs veh, LRRFIP1 / RFU, NDUFAF7 / Fold change vs veh, NDUFAF7 / RFU, SLC12A2 / Fold change vs veh, SLC12A2 / RFU, IBTK / Fold change vs veh, IBTK / RFU, ESF1 / Fold change vs veh, ESF1 / Fold change vs veh, TMEM50B / RFU, TAOK1 / Fold change vs veh, TAOK1 / RFU, ACBD3 / Fold change vs veh, ACBD3 / RFU, TMA16 / Fold change vs veh, TMA16 / RFU, RWDD3 / Fold change vs veh, RWDD3 / RFU, BCAT1 / Fold change vs veh, BCAT1 / RFU, EDEM3 / Fold change vs veh, EDEM3 / RFU, TMEM33 / Fold change vs veh, TMEM33 / RFU, WDR75 / Fold change vs veh, WDR75 / RFU, AHCTF1 / Fold change vs veh, AHCTF1 / RFU, TFRC / Fold change vs veh, TFRC / RFU, ZDHHC17 / Fold change vs veh, ZDHHC17 / RFU, NOM1 / Fold change vs veh, NOM1 / RFU, ARL8B / Fold change vs veh, ARL8B / RFU, ZBTB11 / Fold change vs veh, ZBTB11 / RFU, TAMM41 / Fold change vs veh, TAMM41 / RFU, KIAA1704 /// LOC100996395 / Fold change vs veh, KIAA1704 /// LOC100996395 / RFU, ING1 / Fold change vs veh, ING1 / RFU, TRMT61B / Fold change vs veh, TRMT61B / RFU, FUBP3 / Fold change vs veh, FUBP3 / RFU, TP53 / Fold change vs veh, TP53 / RFU, TNKS2 / Fold change vs veh, TNKS2 / RFU, ZFP14 / Fold change vs veh, ZFP14 / RFU, ACTR2 / Fold change vs veh, ACTR2 / RFU, PPP3R1 / Fold change vs veh, PPP3R1 / RFU, PIK3R1 / Fold change vs veh, PIK3R1 / RFU, HNRNPA1 / Fold change vs veh, HNRNPA1 / RFU, RNF170 / Fold change vs veh, RNF170 / RFU, ZNF28 / Fold change vs veh, ZNF28 / RFU, RNGTT / Fold change vs veh, RNGTT / RFU, OGT / Fold change vs veh, OGT / RFU, BRD1 / Fold change vs veh, BRD1 / RFU, MARS / Fold change vs veh, MARS / RFU, ZNF655 / Fold change vs veh, ZNF655 / RFU, FAHD1 / Fold change vs veh, FAHD1 / RFU, BDP1 / Fold change vs veh, BDP1 / RFU, LRRCC1 / Fold change vs veh, LRRCC1 / RFU, ARID1A / Fold change vs veh, ARID1A / RFU, ZNF146 / Fold change vs veh, ZNF146 / RFU, ZNF330 / Fold change vs veh, ZNF330 / RFU, GPN3 / Fold change vs veh, GPN3 / RFU, C9orf123 / Fold change vs veh, C9orf123 / RFU, N4BP2L2 / Fold change vs veh, N4BP2L2 / RFU, ARFIP1 / Fold change vs veh, ARFIP1 / RFU, FAM179B / Fold change vs veh, FAM179B / RFU, BCL10 / Fold change vs veh, BCL10 / RFU, UHRF1BP1L / Fold change vs veh, UHRF1BP1L / RFU, BET1 / Fold change vs veh, BET1 / RFU, CNOT2 / Fold change vs veh, CNOT2 / RFU, ZNF268 / Fold change vs veh, ZNF268 / Fold change vs veh, ZNF507 / RFU, DGCR2 / Fold change vs veh, DGCR2 / RFU, WDSUB1 / Fold change vs veh, WDSUB1 / Fold change vs veh, HSP90B1 /// MIR3652 / RFU, ADSS / Fold change vs veh, ADSS / RFU, GK / Fold change vs veh, GK / RFU, ZNF148 / Fold change vs veh, ZNF148 / RFU, TAF9 / Fold change vs veh, TAF9 / RFU, SLC1A5 / Fold change vs veh, SLC1A5 / RFU, SLMO2 / Fold change vs veh, SLMO2 / RFU, ABCC4 / Fold change vs veh, ABCC4 / RFU, LOC101060439 /// RAP1B / Fold change vs veh, LOC101060439 /// RAP1B / RFU, RFX7 / Fold change vs veh, RFX7 / RFU, GTPBP10 / Fold change vs veh, GTPBP10 / RFU, CNEP1R1 / Fold change vs veh, CNEP1R1 / RFU, BIVM-ERCC5 /// ERCC5 / Fold change vs veh, BIVM-ERCC5 /// ERCC5 / RFU, ILF3 / Fold change vs veh, ILF3 / RFU 11762660_at / Fold change /veh 11762660_at / RFU VCAN (11757783_s_at) / Fold change /veh VCAN (11757783_s_at) / RFU DDX43 (11728927_at) / Fold change /veh DDX43 (11728927_at) / RFU KRT8 (11758188_x_at) / Fold change /veh KRT8 (11758188_x_at) / RFU NKD1 (11759106_at) / Fold change /veh NKD1 (11759106_at) / RFU SRD5A1 (11742802_a_at) / Fold change /veh SRD5A1 (11742802_a_at) / RFU TPSAB1 /// TPSB2 (11721975_s_at) / Fold change /veh TPSAB1 /// TPSB2 (11721975_s_at) / RFU GSTM3 (11746129_a_at) / Fold change /veh GSTM3 (11746129_a_at) / RFU IL23R (11737362_x_at) / Fold change /veh IL23R (11737362_x_at) / RFU TMEM51 (11727254_a_at) / Fold change /veh TMEM51 (11727254_a_at) / RFU PIWIL2 (11732686_x_at) / Fold change /veh PIWIL2 (11732686_x_at) / RFU ORM1 (11744905_x_at) / Fold change /veh ORM1 (11744905_x_at) / RFU CCDC152 (11743942_at) / Fold change /veh CCDC152 (11743942_at) / RFU ECM1 (11717891_a_at) / Fold change /veh ECM1 (11717891_a_at) / RFU IL23R (11748794_a_at) / Fold change /veh IL23R (11748794_a_at) / RFU TNFAIP8L3 (11732012_x_at) / Fold change /veh TNFAIP8L3 (11732012_x_at) / RFU MBOAT4 (11741988_at) / Fold change /veh MBOAT4 (11741988_at) / RFU 11764193_at / Fold change /veh 11764193_at / RFU TMEM53 (11763286_at) / Fold change /veh TMEM53 (11763286_at) / RFU MAGEB2 (11727129_at) / Fold change /veh MAGEB2 (11727129_at) / RFU TMEM200A (11744735_a_at) / Fold change /veh TMEM200A (11744735_a_at) / RFU CCDC152 (11751479_a_at) / Fold change /veh CCDC152 (11751479_a_at) / RFU FAM211A (11726209_a_at) / Fold change /veh FAM211A (11726209_a_at) / RFU RGS16 (11746705_a_at) / Fold change /veh RGS16 (11746705_a_at) / RFU VCAN (11755009_s_at) / Fold change /veh VCAN (11755009_s_at) / RFU RHOB (11743442_s_at) / Fold change /veh RHOB (11743442_s_at) / RFU RGS16 (11720943_a_at) / Fold change /veh RGS16 (11720943_a_at) / RFU RGS16 (11720944_at) / Fold change /veh RGS16 (11720944_at) / RFU, VPS4B / Fold change vs veh, VPS4B / RFU, CREB1 / Fold change vs veh, CREB1 / RFU, DNAJC13 / Fold change vs veh, DNAJC13 / RFU, GNAQ / Fold change vs veh, GNAQ / RFU, CDK5R1 / Fold change vs veh, CDK5R1 / RFU, ZRANB3 / Fold change vs veh, ZRANB3 / RFU, CUL4A / Fold change vs veh, CUL4A / RFU, CCNY / Fold change vs veh, CCNY / RFU, UFL1 / Fold change vs veh, UFL1 / RFU, COG3 / Fold change vs veh, COG3 / RFU, DIAPH2 / Fold change vs veh, DIAPH2 / RFU, SKA2 / Fold change vs veh, SKA2 / RFU, AFF3 / Fold change vs veh, AFF3 / RFU, LMF1 / Fold change vs veh, LMF1 / RFU, IPO11 / Fold change vs veh, IPO11 / RFU, DFFB / Fold change vs veh, DFFB / RFU, FOXP1 / Fold change vs veh, FOXP1 / RFU, CARD8 / Fold change vs veh, CARD8 / RFU, STRN3 / Fold change vs veh, STRN3 / RFU, ADK / Fold change vs veh, ADK / RFU, RASSF2 / Fold change vs veh, RASSF2 / RFU, WIPF1 / Fold change vs veh, WIPF1 / RFU, LARP1B / Fold change vs veh, LARP1B / RFU, RASA1 / Fold change vs veh, RASA1 / RFU, RB1 / Fold change vs veh, RB1 / RFU, PPFIA1 / Fold change vs veh, PPFIA1 / RFU, MAT2A / Fold change vs veh, MAT2A / RFU, CCT5 / Fold change vs veh, CCT5 / RFU, WDR92 / Fold change vs veh, WDR92 / RFU, CUX1 / Fold change vs veh, CUX1 / RFU, TTC7A / Fold change vs veh, TTC7A / RFU, TMEM135 / Fold change vs veh, TMEM135 / RFU, DEPTOR / Fold change vs veh, DEPTOR / RFU, CPM / Fold change vs veh, CPM / RFU, DNAJB6 / Fold change vs veh, DNAJB6 / RFU, CACNA2D3 / Fold change vs veh, CACNA2D3 / RFU, DTX4 / Fold change vs veh, DTX4 / RFU, TFCP2 / Fold change vs veh, TFCP2 / RFU, GMCL1 /// GMCL1P1 / Fold change vs veh, GMCL1 /// GMCL1P1 / RFU, AEBP2 / Fold change vs veh, AEBP2 / RFU, SNHG1 /// SNORD22 /// SNORD25 /// SNORD26 /// SNORD27 /// SNORD28 /// SNORD29 /// SNORD31 / Fold change vs veh, SNHG1 /// SNORD22 /// SNORD25 /// SNORD26 /// SNORD27 /// SNORD28 /// SNORD29 /// SNORD31 / Fold change (Aza/veh), C12orf56 (ProbeSet 11735607_a_at) / Fold change (ACY-1035/veh), C12orf56 (ProbeSet 11735607_a_at) / Fold change (Aza/veh), FGFR1OP (ProbeSet 11751329_s_at) / Fold change (ACY-1035/veh), FGFR1OP (ProbeSet 11751329_s_at) / Fold change (Aza/veh), VPS36 (ProbeSet 11739960_a_at) / Fold change (ACY-1035/veh), VPS36 (ProbeSet 11739960_a_at) / RFU SYPL1 (11715823_x_at) / Fold change /veh SYPL1 (11715823_x_at) / RFU IGFBP7 (11715501_s_at) / Fold change /veh IGFBP7 (11715501_s_at) / RFU REEP3 (11722064_at) / Fold change /veh REEP3 (11722064_at) / RFU IGLL1 (11728026_x_at) / Fold change /veh IGLL1 (11728026_x_at): dose or concentration left out as unconfirmed
Conditions: ProbeSet 11733108_at; LIST D

In the case of `Nc1ccc(-c2cccs2)cc1NC(=O)c1ccc2c(c1)cc(C1CC1)n2CCN1CCOCC1` [ACY-1035], the “Fold change vs veh, GNAQ” value is reported as 0.91.
